Like-named read-outs stand apart in the source and are kept apart here.
What was measured:
[1] = PK comparison between three administration routes (IV, PO, SC), plasma LC-MS/MS; format: in vivo, Sprague-Dawley rats; conditions: for Vd/F: read-out: Vz/F
Procedure: The rats were purchased from SPF Biotechnology Co. Ltd. (Beijing, China). Animals were acclimated to the test facility for at least three days, during which their general health was checked by veterinary staff or other authorized personnel. Animals were kept in polycarbonate cages containing absorbent corncob bedding, with a maintained temperature range of +20-25 °C and a 12-h light/dark cycle. Animals had access to food and drinking water ad libitum during acclimation and the experiment. At the end of the study, the rats were euthanized by exposure to an increasing concentration of CO2. […] The SC formulation was prepared by dissolving micronized ANA (5 μm particle size) in an oily triglyceride ester of saturated caprylic and capric fatty acids and glycerol (Miglyol® 810 N, IOI Oleo GmbH, Hamburg, Germany). […] To evaluate plasma concentration-time profiles, blood samples were collected from the jugular vein in EDTA tubes and stored at -70 °C until further analysis. […] In the second PK analysis in rats with a longer follow-up time, blood samples were collected at 0, 30 min, 1 […], and 56 d after dosage. SD rat plasma was analyzed for ANA, 3-OH-ANA, and RL603 concentrations by Pharmaron (Beijing, China). ANA, 3-hydroxy-anagrelide (CAS No. 733043-41-9, Cat. No. sc-206647, Santa Cruz Biotechnology, Inc., Dallas, TX), and RL603 (CAS No. 327602-34-6, Cat. No. sc-391661, Santa Cruz Biotechnology, Inc., Dallas, TX) were used as reference items in calibration standards and quality control (QC) samples. The HPLC and the MS/MS (LCMS-8060) instruments were both from SHIMADZU (Kyoto, Japan), and the column used was a Raptor Biphenyl column (2.7 μm, 50 × 2.1 mm, Restek, Bellefonte, PA). The desired serial concentrations of working solutions were achieved by diluting analyte stock solution with 50% acetonitrile in water. […] These QC samples were prepared on the day of analysis in the same way as calibration standards. Carbamazepine (CAS No. 298-46-4, Sigma-Aldrich, St. Louis, MO) was used as an internal standard for all analytes. Altogether, 55 μL of standards, 55 μL of QC samples, and 55 μL of test samples (comprising 50 μL of plasma and 5 μL of blank solution) were added to 200 μL of acetonitrile containing an internal standard mixture to precipitate protein. The samples were then vortexed for 30 seconds. After centrifugation at 4000 × g (+4 °C) for 5 min, the supernatant was diluted threefold with water, and 2 μL of the diluted supernatant was injected into the LC/MS/MS system for quantitative analysis. The transitions were 256.00-198.90 m/z for anagrelide hydrochloride, 272.00-198.95 m/z for 3-hydroxy anagrelide, 216.00-198.95 m/z for RL603, and 237.20-194.10 m/z for carbamazepine. […] Plasma drug concentration-time profiles were drawn by the average plasma concentrations at specific time points using Microsoft Excel (Redmond, WA). […] Certara, Princeton, NJ) software. Averages of each variable were used when PK values were compared.

UZLX-GIST2B = system: UZLX-GIST2B; parameters: method as in Pulkka et al., 2019; conditions: 5 mg/kg PO BID, in 11 days; ref Pulkka et al., 2019; cited from earlier work
[2] = SC 1.0 mg/kg vs IV 0.5 mg/kg, SD rats
[3] = Sprague-Dawley, rat, plasma, single ANA dose 0.5 mg/kg IV, male SD rats, n = 3, mean ± SD
[4] = Sprague-Dawley, rat, plasma, single ANA dose 1.0 mg/kg SC in miglyol, male SD rats, n = 5, mean ± SD
[5] = Sprague-Dawley, rat, plasma, single ANA dose 2.5 mg/kg PO, male SD rats, n = 3, mean ± SD
[6] = Sprague-Dawley, rat, analyte in plasma after single ANA dose 0.5 mg/kg IV, male SD rats, n = 3, mean ± SD
[7] = Sprague-Dawley, rat, analyte in plasma after single ANA dose 1.0 mg/kg SC in miglyol, male SD rats, n = 5, mean ± SD
[8] = Sprague-Dawley, rat, analyte in plasma after single ANA dose 2.5 mg/kg PO, male SD rats, n = 3, mean ± SD

Structure (SMILES): O=C1CN2Cc3c(ccc(Cl)c3Cl)N=C2N1 [Anagrelide, imidazo‐[2,1‐b] quinazolin‐2[3H]‐one, 6,7‐dichloro‐1,5‐dihydro, monohydro‐chloride]
- AUClast lower with SC than with IV [1, 2]: 36%
- increase of T1/2 with SC administration compared to IV [1, 2]: 25 fold
- MRT inf [1, 3]: 0.51 ± 0.08 h
- clearance [1, 3]: 31.9 ± 2.52 mL/min/kg
- Vd ([1]; Sprague-Dawley, rat, plasma, single ANA dose 0.5 mg/kg IV, male SD rats, n = 3, mean ± SD, read-out: Vss): 0.97 ± 0.1 L/kg
- CL/F [1, 4]: 101 ± 37.4 mL/min/kg
- MRT inf [1, 4]: 48.1 ± 22.7 h
- bioavailability [1, 4]: 33.5 ± 9.79%
- Vd/F [1, 4]: 218 ± 149 L/kg
- CL/F [1, 5]: 718 ± 125 mL/min/kg
- MRT inf [1, 5]: 6.38 ± 1.33 h
- bioavailability [1, 5]: 4.19 ± 0.7%
- Vd/F [1, 5]: 634 ± 338 L/kg
- AUC(0-inf) [1, 6]: 262 ± 19.9 ng·h/mL
- AUC(0-t) [1, 6]: 261 ± 19.8 ng·h/mL
- Cmax [1, 6]: 497 ± 17.5 ng/mL
- half-life [1, 6]: 1.09 ± 0.22 h
- AUC(0-inf) [1, 7]: 187 ± 62 ng·h/mL
- AUC(0-t) [1, 7]: 167 ± 57.1 ng·h/mL
- Cmax [1, 7]: 12.4 ± 3.14 ng/mL
- half-life [1, 7]: 27.3 ± 24.4 h
- AUC(0-inf) [1, 8]: 59.3 ± 9.49 ng·h/mL
- AUC(0-t) [1, 8]: 51.4 ± 7.09 ng·h/mL
- Cmax [1, 8]: 18 ± 2.59 ng/mL
- half-life [1, 8]: 10.1 ± 4.93 h
- time to compound elimination from plasma ([1]; after IV 0.5 mg/kg, SD rats): ≤ 6 h
- decrease of plasma concentrations by the 8-h time point ([1]; after PO 2.5 mg/kg, SD rats): approximately 90%
- time point after which plasma concentrations were no longer detectable ([1]; after SC 1.0 mg/kg, SD rats, except a few irregular observations near the quantification limit): 72 h
- Tmax ([1]; analyte in plasma after single ANA dose 1.0 mg/kg SC in miglyol, male SD rats, n = 5, mean ± SD, 1 mg/kg): 0.80 ± 0.27 h
- Tmax ([1]; male, Sprague-Dawley, rat, plasma, iv, 0.5 mg/kg, analyte in plasma after single ANA dose 0.5 mg/kg IV, male SD rats, n = 3, mean ± SD, read-out: Tmax): 0.083 h
- Tmax ([1]; male, Sprague-Dawley, rat, plasma, po, 2.5 mg/kg, analyte in plasma after single ANA dose 2.5 mg/kg PO, male SD rats, n = 3, mean ± SD, read-out: Tmax): 1 h
- Tmax ([1]; male, Sprague-Dawley, rat, plasma, sc, 1 mg/kg, analyte in plasma after single ANA dose 1.0 mg/kg SC in miglyol, male SD rats, n = 5, mean ± SD, read-out: Tmax): 1 h
- tumor response in the same PDX model (UZLX-GIST2B): significant tumor regression

— publication PMC11816618, “Pharmacokinetic profile and in vivo anticancer efficacy of anagrelide administered subcutaneously in rodents” (Drug Delivery, 2025)
